In patent US8247211B2, “Glycopeptide antibiotics” (American Cyanamid Company, priority 2001, dated 2012):

Experiments:
Assay in all cases: In vitro antibacterial evaluation: minimum inhibitory concentration (MIC), broth dilution method
Format in all cases: cell-based
Enterococcus sp. = conditions: broth dilution, 18 hours at 35° C.
In short: (§1)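 Test strains, among them recent clinical isolates carrying methicillin, penicillin and/or vancomycin resistance, were inoculated at 5×10^5 CFU/mL. A broth dilution series spanning 64-0.06 μg/mL in Muller-Hinton II […] (NCCLS M7-A2) defined the MIC as the lowest growth-inhibiting concentration.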

Streptococcus sp. = conditions: broth dilution, 18 hours at 35° C.
In short: as §1

Staphylococcus sp. = conditions: broth dilution, 18 hours at 35° C.; for MIC Staphylococcus aureus-SMITH (GC 4543): strain SMITH GC 4543
In short: as §1

Escherichia coli = conditions: broth dilution, 18 hours at 35° C.
[1] = Enterococcus faecalis (ATCC 29212)
[2] = Enterococcus faecalis (GC 2242)
[3] = Enterococcus faecalis (GC 2691)
[4] = Enterococcus faecalis (GC 3059)
[5] = Enterococcus faecalis (GC 4552)
[6] = Enterococcus faecalis (GC 4553)
[7] = Enterococcus faecalis (GC 4554)
[8] = Enterococcus faecalis (GC 6189)
[9] = Streptococcus agalactiae (GC 4564)
[10] = Streptococcus pneumoniae (ATCC 6301)
[11] = Streptococcus pneumoniae (GC 1894)
[12] = Streptococcus pneumoniae (GC 4565)
[13] = Streptococcus pyogenes (GC 4563)

CC(c1ccccc1)C1NC(=O)CNC(=O)C(CO)NC(=O)C(C(O)C2CNC(=N)N2C2OC(CO)C(O)C(O)C2O)NC(=O)C(C(O)C2CNC(=N)N2)NC(=O)C(Cc2ccc3oc(C=C(c4ccccc4)c4ccccc4)nc3c2)NC1=O (stereo not drawn) [Example 39, Cyclo[3-[2-(2,2-diphenylethenyl)-1,3-benzoxazol-5-yl]alanyl-3-(2-iminoimidazolidin-4-yl)seryl-3-(3-hexopyranosyl-2-iminoimidazolidin-4-yl)serylserylglycyl-β-methylphenylalanyl]]
4 µg/mL: MIC Streptococcus pyogenes (GC 4563) (Streptococcus sp.; [13]) | MIC Streptococcus pyogenes (GC 4563) (Streptococcus sp.) | MIC Coagulase Negative Staphylococcus (GC 4549) (Staphylococcus sp.) | MIC Coagulase Negative Staphylococcus (GC 6257) (Staphylococcus sp.)
32 µg/mL: MIC Enterococcus faecalis (GC 4554) (Enterococcus sp.; [7]) | MIC Enterococcus faecium (GC 4556) (Enterococcus sp.; Enterococcus faecium (GC 4556)) | MIC Enterococcus faecalis (GC 4554) (Enterococcus sp.) | MIC Enterococcus faecium (GC 4556) (Enterococcus sp.)
16 µg/mL: MIC Enterococcus faecalis (ATCC 29212) (Enterococcus sp.; [1]) | MIC Enterococcus faecalis (GC 2242) (Enterococcus sp.; [2]) | MIC Enterococcus faecalis (GC 2691) (Enterococcus sp.; [3]) | MIC Enterococcus faecalis (GC 3059) (Enterococcus sp.; [4]) | MIC Enterococcus faecalis (GC 4552) (Enterococcus sp.; [5]) | MIC Enterococcus faecalis (GC 6189) (Enterococcus sp.; [8]) | MIC Enterococcus faecalis (ATCC 29212) (Enterococcus sp.) | MIC Enterococcus faecalis (GC 2242) (Enterococcus sp.) | MIC Enterococcus faecalis (GC 2691) (Enterococcus sp.) | MIC Enterococcus faecalis (GC 3059) (Enterococcus sp.) | MIC Enterococcus faecalis (GC 4552) (Enterococcus sp.) | MIC Enterococcus faecalis (GC 6189) (Enterococcus sp.) | MIC Streptococcus agalactiae (GC 4564) (Streptococcus sp.; [9]) | MIC Streptococcus pneumoniae (GC 4565) (Streptococcus sp.; [12]) | MIC Streptococcus agalactiae (GC 4564) (Streptococcus sp.) | MIC Streptococcus pneumoniae (GC 4565) (Streptococcus sp.) | MIC Staphylococcus aureus SMITH (GC 4543) (Staphylococcus sp.) | MIC Staphylococcus aureus-SMITH (GC 4543) (Staphylococcus sp.) | MIC Escherichia coli (GC 4560) (Escherichia coli)
8 µg/mL: MIC Enterococcus avium (GC 4558) (Enterococcus sp.; Enterococcus avium (GC 4558)) | MIC Enterococcus faecalis (GC 4553) (Enterococcus sp.; [6]) | MIC Enterococcus faecium (GC 2243) (Enterococcus sp.; Enterococcus faecium (GC 2243)) | MIC Enterococcus faecium (GC 4557) (Enterococcus sp.; Enterococcus faecium (GC 4557)) | MIC Enterococcus avium (GC 4558) (Enterococcus sp.) | MIC Enterococcus faecalis (GC 4553) (Enterococcus sp.) | MIC Enterococcus faecium (GC 2243) (Enterococcus sp.) | MIC Enterococcus faecium (GC 4557) (Enterococcus sp.) | MIC Streptococcus pneumoniae (ATCC 6301) (Streptococcus sp.; [10]) | MIC Streptococcus pneumoniae (GC 1894) (Streptococcus sp.; [11]) | MIC Streptococcus pneumoniae (ATCC 6301) (Streptococcus sp.) | MIC Streptococcus pneumoniae (GC 1894) (Streptococcus sp.) | MIC Coagulase Negative Staphylococcus (GC 4547) (Staphylococcus sp.) | MIC Coagulase Negative Staphylococcus (GC 4548) (Staphylococcus sp.) | MIC Coagulase Negative Staphylococcus (GC 4551) (Staphylococcus sp.) | MIC Staphylococcus haemolyticus (GC 4546) (Staphylococcus sp.)

CC(c1ccccc1)C1NC(=O)CNC(=O)C(CO)NC(=O)C(CC2CNC(=N)N2C2OC(CO)C(O)C(O)C2O)NC(=O)C(CC2CNC(=N)N2)NC(=O)C(Cc2ccc3oc(-c4ccc5c(c4)Cc4ccccc4-5)nc3c2)NC1=O (stereo not drawn) [Example 42, Cyclo[3-[2-(9H-fluoren-2-yl)-1,3-benzoxazol-5-yl]alanyl-3-(2-iminoimidazolidin-4-yl)alanyl-3-(3-hexopyranosyl-2-iminoimidazolidin-4-yl)alanylserylglycyl-β-methylphenylalanyl]]
1 µg/mL: MIC Coagulase Negative Staphylococcus (GC 4548) (Staphylococcus sp.) | MIC Coagulase Negative Staphylococcus (GC 4549) (Staphylococcus sp.) | MIC Coagulase Negative Staphylococcus (GC 6257) (Staphylococcus sp.) | MIC Escherichia coli (GC 4560) (Escherichia coli)
2 µg/mL: MIC Enterococcus faecium (GC 4557) (Enterococcus sp.; Enterococcus faecium (GC 4557)) | MIC Enterococcus faecium (GC 4557) (Enterococcus sp.) | MIC Coagulase Negative Staphylococcus (GC 4547) (Staphylococcus sp.) | MIC Staphylococcus aureus SMITH (GC 4543) (Staphylococcus sp.) | MIC Staphylococcus haemolyticus (GC 4546) (Staphylococcus sp.) | MIC Staphylococcus aureus-SMITH (GC 4543) (Staphylococcus sp.)
16 µg/mL: MIC Enterococcus faecalis (GC 3059) (Enterococcus sp.; [4]) | MIC Enterococcus faecium (GC 4556) (Enterococcus sp.; Enterococcus faecium (GC 4556)) | MIC Enterococcus faecalis (GC 3059) (Enterococcus sp.) | MIC Enterococcus faecium (GC 4556) (Enterococcus sp.) | MIC Streptococcus pneumoniae (GC 1894) (Streptococcus sp.; [11]) | MIC Streptococcus pneumoniae (GC 4565) (Streptococcus sp.; [12]) | MIC Streptococcus pneumoniae (GC 1894) (Streptococcus sp.) | MIC Streptococcus pneumoniae (GC 4565) (Streptococcus sp.)
8 µg/mL: MIC Enterococcus faecalis (ATCC 29212) (Enterococcus sp.; [1]) | MIC Enterococcus faecalis (GC 2242) (Enterococcus sp.; [2]) | MIC Enterococcus faecalis (GC 2691) (Enterococcus sp.; [3]) | MIC Enterococcus faecalis (GC 4552) (Enterococcus sp.; [5]) | MIC Enterococcus faecalis (GC 4553) (Enterococcus sp.; [6]) | MIC Enterococcus faecalis (GC 4554) (Enterococcus sp.; [7]) | MIC Enterococcus faecalis (GC 6189) (Enterococcus sp.; [8]) | MIC Enterococcus faecalis (ATCC 29212) (Enterococcus sp.) | MIC Enterococcus faecalis (GC 2242) (Enterococcus sp.) | MIC Enterococcus faecalis (GC 2691) (Enterococcus sp.) | MIC Enterococcus faecalis (GC 4552) (Enterococcus sp.) | MIC Enterococcus faecalis (GC 4553) (Enterococcus sp.) | MIC Enterococcus faecalis (GC 4554) (Enterococcus sp.) | MIC Enterococcus faecalis (GC 6189) (Enterococcus sp.) | MIC Streptococcus agalactiae (GC 4564) (Streptococcus sp.; [9]) | MIC Streptococcus pneumoniae (ATCC 6301) (Streptococcus sp.; [10]) | MIC Streptococcus agalactiae (GC 4564) (Streptococcus sp.) | MIC Streptococcus pneumoniae (ATCC 6301) (Streptococcus sp.)
4 µg/mL: MIC Enterococcus avium (GC 4558) (Enterococcus sp.; Enterococcus avium (GC 4558)) | MIC Enterococcus faecium (GC 2243) (Enterococcus sp.; Enterococcus faecium (GC 2243)) | MIC Enterococcus avium (GC 4558) (Enterococcus sp.) | MIC Enterococcus faecium (GC 2243) (Enterococcus sp.) | MIC Streptococcus pyogenes (GC 4563) (Streptococcus sp.; [13]) | MIC Streptococcus pyogenes (GC 4563) (Streptococcus sp.) | MIC Coagulase Negative Staphylococcus (GC 4551) (Staphylococcus sp.)
32 µg/mL: MIC Escherichia coli (ATCC 25922) (Escherichia coli) | MIC Escherichia coli (GC 4559) (Escherichia coli)

CC(c1ccccc1)C1NC(=O)CNC(=O)C(CO)NC(=O)C(C(O)C2CNC(=N)N2C2OC(CO)C(O)C(O)C2O)NC(=O)C(C(O)C2CNC(=N)N2)NC(=O)C(Cc2ccc3oc(SCc4ccccc4)nc3c2)NC1=O (stereo not drawn) [Example 45, Cyclo[3-[2-(benzylthio)-1,3-benzoxazol-5-yl]alanyl-3-(2-iminoimidazolidin-4-yl)seryl-3-(3-hexopyranosyl-2-iminoimidazolidin-4-yl)serylserylglycyl-β-methylphenylalanyl]]
4 µg/mL: MIC Enterococcus faecium (GC 4557) (Enterococcus sp.; Enterococcus faecium (GC 4557)) | MIC Enterococcus faecium (GC 4557) (Enterococcus sp.) | MIC Streptococcus pyogenes (GC 4563) (Streptococcus sp.; [13]) | MIC Streptococcus pyogenes (GC 4563) (Streptococcus sp.) | MIC Coagulase Negative Staphylococcus (GC 4547) (Staphylococcus sp.) | MIC Coagulase Negative Staphylococcus (GC 4549) (Staphylococcus sp.) | MIC Coagulase Negative Staphylococcus (GC 6257) (Staphylococcus sp.) | MIC Staphylococcus haemolyticus (GC 4546) (Staphylococcus sp.) | MIC Escherichia coli (GC 4560) (Escherichia coli)
32 µg/mL: MIC Enterococcus faecalis (ATCC 29212) (Enterococcus sp.; [1]) | MIC Enterococcus faecalis (GC 2691) (Enterococcus sp.; [3]) | MIC Enterococcus faecalis (GC 3059) (Enterococcus sp.; [4]) | MIC Enterococcus faecium (GC 4556) (Enterococcus sp.; Enterococcus faecium (GC 4556)) | MIC Enterococcus faecalis (ATCC 29212) (Enterococcus sp.) | MIC Enterococcus faecalis (GC 2691) (Enterococcus sp.) | MIC Enterococcus faecalis (GC 3059) (Enterococcus sp.) | MIC Enterococcus faecium (GC 4556) (Enterococcus sp.) | MIC Streptococcus pneumoniae (GC 4565) (Streptococcus sp.; [12]) | MIC Streptococcus pneumoniae (GC 4565) (Streptococcus sp.)
16 µg/mL: MIC Enterococcus faecalis (GC 2242) (Enterococcus sp.; [2]) | MIC Enterococcus faecalis (GC 4552) (Enterococcus sp.; [5]) | MIC Enterococcus faecalis (GC 4553) (Enterococcus sp.; [6]) | MIC Enterococcus faecalis (GC 4554) (Enterococcus sp.; [7]) | MIC Enterococcus faecalis (GC 6189) (Enterococcus sp.; [8]) | MIC Enterococcus faecium (GC 2243) (Enterococcus sp.; Enterococcus faecium (GC 2243)) | MIC Enterococcus faecalis (GC 2242) (Enterococcus sp.) | MIC Enterococcus faecalis (GC 4552) (Enterococcus sp.) | MIC Enterococcus faecalis (GC 4553) (Enterococcus sp.) | MIC Enterococcus faecalis (GC 4554) (Enterococcus sp.) | MIC Enterococcus faecalis (GC 6189) (Enterococcus sp.) | MIC Enterococcus faecium (GC 2243) (Enterococcus sp.) | MIC Streptococcus agalactiae (GC 4564) (Streptococcus sp.; [9]) | MIC Streptococcus pneumoniae (ATCC 6301) (Streptococcus sp.; [10]) | MIC Streptococcus pneumoniae (GC 1894) (Streptococcus sp.; [11]) | MIC Streptococcus agalactiae (GC 4564) (Streptococcus sp.) | MIC Streptococcus pneumoniae (ATCC 6301) (Streptococcus sp.) | MIC Streptococcus pneumoniae (GC 1894) (Streptococcus sp.) | MIC Escherichia coli (ATCC 25922) (Escherichia coli) | MIC Escherichia coli (GC 4559) (Escherichia coli)
8 µg/mL: MIC Enterococcus avium (GC 4558) (Enterococcus sp.; Enterococcus avium (GC 4558)) | MIC Enterococcus avium (GC 4558) (Enterococcus sp.) | MIC Coagulase Negative Staphylococcus (GC 4548) (Staphylococcus sp.) | MIC Coagulase Negative Staphylococcus (GC 4551) (Staphylococcus sp.) | MIC Staphylococcus aureus SMITH (GC 4543) (Staphylococcus sp.) | MIC Staphylococcus aureus-SMITH (GC 4543) (Staphylococcus sp.)
